pKi: −log10 of the molar value. Starred links: 1 amine or outer side, 2 acyl side, 3 side chain; linkers in the order of their positions; H or OH if unused. Non-standard residues stand in square brackets, D forms with d. Residues, ends and D or L forms follow the SMILES beside them. *: point of attachment. Hexanoyl(5S-NH,4S-OH,6-Ph) = O=C(CC[C@H](O)[C@H](Cc1ccccc1)N[*:1])[*:2]; X3 = O=C([C@@H]1CCC[C@@H]1[C@H](O)[C@H](Cc1ccccc1)N[*:1])[*:2]; PheΨ(PO2HCH2)Gly = O=C(CCP(=O)(O)[C@H](Cc1ccccc1)N[*:1])[*:2]; Ahppa(3S,4S) = O=C(C[C@H](O)[C@H](Cc1ccccc1)N[*:1])[*:2]; X10 = O=C([C@H]1CCCN1C[C@H](Cc1ccc(O)cc1)N[*:1])[*:2]; X1 = O=C(C[C@H](O)[C@H](Cc1ccc(O)cc1)N[*:1])[*:2]; X4 = O=C([C@H](Cc1ccccc1)N[*:1])C(F)(F)C(=O)[*:2]; X6 = O=C(CC[C@@H](O)[C@H](Cc1ccccc1)N[*:1])[*:2]; X9 = O=C(CP(=O)(O)[C@H](Cc1ccccc1)N[*:1])[*:2]; X7 = NC(=O)C[C@H](N[*:1])[C@@H](O)CC(=O)[*:2]; Sta = CC(C)C[C@H](N)[C@@H](O)CC(=O)O; Cbz = O=C(OCc1ccccc1)*; Boc = CC(C)(C)OC(=O)*; Lac = C[C@H](O)C(=O)O
Target: Human immunodeficiency virus type 1 protease (Human immunodeficiency virus 1, UniProt Q72874)
Test: Binding affinity to HIV-1 protease

SMILES | pKi
CC(=O)N[C@@H](CO)C(=O)N[C@@H](CCC(N)=O)C(=O)N[C@@H](CC(N)=O)C(=O)N[C@@H](Cc1ccc(O)cc1)CN1CCC[C@@H]1C(=O)N[C@H](C(=O)N[C@H](C(N)=O)C(C)C)C(C)C (Ac-SQN[X10]VV-NH2) | 4.89
COC(=O)[C@@H](NC(=O)[C@@H](NC(=O)C[C@H](O)[C@H](Cc1ccccc1)NC(=O)[C@H](C)NC(=O)[C@H](C)NC(=O)[C@H](CO)NC(=O)OC(C)(C)C)C(C)C)C(C)C (Boc-SAA[Ahppa(3S,4S)]VV-OMe) | 5.92
COC(=O)[C@@H](NC(=O)[C@@H](NC(=O)C[C@H](O)[C@H](Cc1ccc(O)cc1)NC(=O)[C@H](C)NC(=O)[C@H](C)NC(=O)[C@H](CO)NC(=O)OC(C)(C)C)C(C)C)C(C)C (Boc-SAA[X1]VV-OMe) | 6.74
COC(=O)[C@@H](NC(=O)[C@@H](NC(=O)C(F)(F)C(=O)[C@H](Cc1ccccc1)NC(=O)[C@H](C)NC(=O)[C@H](C)NC(=O)[C@H](CO)NC(=O)OC(C)(C)C)C(C)C)C(C)C (Boc-SAA[X4]VV-OMe) | 6.80
COC(=O)[C@@H](NC(=O)[C@@H](NC(=O)CC[C@H](O)[C@H](Cc1ccccc1)NC(=O)[C@H](Cc1ccccc1)NC(=O)[C@H](C)NC(=O)[C@H](C)NC(=O)OCc1ccccc1)C(C)C)C(C)C (Cbz-AAF[Hexanoyl(5S-NH,4S-OH,6-Ph)]VV-OMe) | 7.32
COC(=O)[C@@H](NC(=O)[C@@H](NC(=O)CC[C@H](O)[C@H](Cc1ccccc1)NC(=O)[C@H](C)NC(=O)[C@H](C)N)C(C)C)C(C)C (H-AA[Hexanoyl(5S-NH,4S-OH,6-Ph)]VV-OMe) | 7.74
COC(=O)[C@@H](NC(=O)[C@@H](NC(=O)C[C@H](O)[C@H](Cc1ccccc1)NC(=O)[C@H](C)NC(=O)[C@H](C)NC(=O)[C@@H](N)CO)C(C)C)C(C)C (H-SAA[Ahppa(3S,4S)]VV-OMe) | 6.09
COC(=O)[C@@H](NC(=O)[C@@H](NC(=O)CC[C@H](O)[C@H](Cc1ccccc1)NC(=O)[C@H](C)NC(=O)[C@H](C)NC(=O)[C@@H](N)CO)C(C)C)C(C)C (H-SAA[Hexanoyl(5S-NH,4S-OH,6-Ph)]VV-OMe) | 7.21
COC(=O)[C@@H](NC(=O)[C@@H](NC(=O)CCP(=O)(O)[C@H](Cc1ccccc1)NC(=O)[C@H](C)NC(=O)[C@H](C)NC(=O)[C@@H](N)CO)C(C)C)C(C)C (H-SAA[PheΨ(PO2HCH2)Gly]VV-OMe) | 5.36
COC(=O)[C@@H](NC(=O)[C@@H](NC(=O)C[C@H](O)[C@H](Cc1ccc(O)cc1)NC(=O)[C@H](C)NC(=O)[C@H](C)NC(=O)[C@@H](N)CO)C(C)C)C(C)C (H-SAA[X1]VV-OMe) | 7.10
COC(=O)[C@@H](NC(=O)[C@@H](NC(=O)[C@@H]1CCC[C@@H]1[C@H](O)[C@H](Cc1ccccc1)NC(=O)[C@H](C)NC(=O)[C@H](C)NC(=O)[C@@H](N)CO)C(C)C)C(C)C (H-SAA[X3]VV-OMe) | 6.30
COC(=O)[C@@H](NC(=O)[C@@H](NC(=O)CC[C@@H](O)[C@H](Cc1ccccc1)NC(=O)[C@H](C)NC(=O)[C@H](C)NC(=O)[C@@H](N)CO)C(C)C)C(C)C (H-SAA[X6]VV-OMe) | 5.31
COC(=O)[C@@H](NC(=O)[C@@H](NC(=O)CP(=O)(O)[C@H](Cc1ccccc1)NC(=O)[C@H](C)NC(=O)[C@H](C)NC(=O)[C@@H](N)CO)C(C)C)C(C)C (H-SAA[X9]VV-OMe) | 5.35
CC[C@H](C)[C@H](NC(=O)C[C@H](O)[C@H](CC(N)=O)NC(=O)[C@H](CCC(N)=O)NC(=O)[C@H](CO)NC(=O)[C@@H](N)C(C)C)C(=O)N[C@H](C(=O)O)C(C)C (H-VSQ[X7]IV-OH) | 5.43
CC(C)C[C@H](NC(=O)[C@H](C)NC(=O)C[C@H](O)[C@H](CC(C)C)NC(=O)[C@@H](NC(=O)[C@@H](NC(=O)[C@H](C)O)C(C)C)C(C)C)[C@@H](O)CC(=O)O (H-[Lac]VV[Sta]A[Sta]-OH) | 4.72
CC(C)[C@H](NC(=O)[C@@H](NC(=O)C1CCCN1C[C@H](Cc1ccccc1)NC(=O)[C@H](C)NC(=O)[C@H](C)NC(=O)[C@@H](N)CO)C(C)C)C(N)=O (single isomer, unassigned) | 4.74
CC(C)[C@H](NC(=O)OCc1ccccc1)C(=O)N[C@@H](Cc1ccccc1)C(=O)C(F)(F)CCc1ccccc1 (stereo in doubt; 12) | 8.57
CC(C)[C@H](NC(=O)OCc1ccccc1)C(=O)N[C@@H](Cc1ccccc1)C(=O)C(F)(F)CCc1ccccc1 (stereo in doubt; 17) | 8.30
CC(=O)N[C@@H](CO)C(=O)N[C@@H](CCC(N)=O)C(=O)N[C@@H](CC(N)=O)C(=O)N[C@@H](Cc1ccccc1)CN1CCC[C@@H]1C(=O)N[C@H](C(=O)N[C@H](C(N)=O)C(C)C)C(C)C (stereo in doubt; 70) | 4.89
CC(=O)N[C@@H](CO)C(=O)N[C@@H](CCC(N)=O)C(=O)N[C@@H](CC(N)=O)C(=O)N[C@@H](Cc1ccccc1)CN1CCC[C@@H]1C(=O)N[C@H](C(=O)N[C@H](C(N)=O)C(C)C)C(C)C (stereo in doubt; 71) | 4.85
CC(C)(C)OC(=O)N[C@@H](Cc1ccccc1)[C@@H](O)C(=O)N[C@@H](CCC(=O)O)C(=O)N[C@@H](Cc1ccccc1)C(=O)O (stereo in doubt; 72) | 4.77
CC(C)(C)OC(=O)N[C@@H](Cc1ccccc1)[C@@H](O)C(=O)N[C@@H](CCC(=O)O)C(=O)N[C@@H](Cc1ccccc1)C(=O)O (stereo in doubt; 76) | 4.62
CC(C)CC(=O)N[C@H](C(=O)N[C@H](C(=O)N[C@@H](CC(C)C)[C@@H](O)CC(=O)N[C@@H](C)C(=O)N[C@@H](CC(C)C)[C@@H](O)CC(=O)O)C(C)C)C(C)C [PEPSTATIN] | 7.77
